Test results: patent US6060608A, “Analogs of CC-1065 and the duocarmycins” (The Scripps Research Institute, priority 1999, dated 2000)

Key:
[1] = tested on: w794 duplex DNA; assay: DNA alkylation selectivity and efficiency within w794 DNA, thermally-induced strand cleavage and PAGE; format: biochemical, SV40
Summary of the method: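 5′-32P end-labeled w794 duplex DNA in TE buffer (pH 7.2–7.5) incubated with agent in DMSO across concentrations, 4–37 °C for 24–76 h depending on agent. Unbound agent removed by EtOH precipitation; thermolysis 100 °C, 30 min cleaves alkylation sites, mapped by denaturing 8% PAGE beside Sanger standards and autoradiography.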

[2] = Solvolysis regioselectivity (acid-catalyzed nucleophilic addition to the cyclopropane); format: physicochemical; details: C9 addition versus ring expansion
From the text: Solvolysis: Reactivity. Two fundamental characteristics of the alkylation subunits have proven important in the studies to date. The first is the stereoelectronically-controlled acid-catalyzed ring-opening of the cyclopropane which dictates preferential addition of a nucleophile to the least substituted cyclopropane carbon. With the CBI series of modified alkylation subunits where this stereoelectronic alignment of the C8b-C9 bond is nearly optimized, exclusive (≥20:1) addition to the C9 center with cleavage of the C8b-C9 bond is observed. […] Thus, the impact of the difluorocyclopropane substitution on the reactivity and reaction regioselectivity of CBI was examined.
Solvolysis: Regioselectivity. Treatment of both 217 and 219 with catalytic CF3 SO3 H (0.1 equiv) in CH3 OH (0° C.) rapidly and cleanly provided a single characterizable product 225 (30 min, 90%) or 226 (10 min, 79%), FIG. 33. […] Furthermore, the ^1 H-^13 C HMBC NMR spectrum of 226 established the carbon-carbon connectivity of C1 (δ51.0) with the CF2 carbon (δ50.3, t) and C9b (δ125.0). No connectivity between the key CF2 carbon (δ50.3, t) and […] was detected as required of the ring expansion regioisomer. This was unambiguously established by conducting the solvolysis in THF-H2 O catalyzed by CF3 SO3 H (0.12 equiv) which cleanly provided 227 (18 h, 85%), FIG. 33. […]

[3] = Solvolysis in THF-CH3OH with CF3SO3H; format: physicochemical; details: 20 equiv CH3OH, 0.1 equiv CF3SO3H
Protocol: Solvolysis of N-BOC-CCBI in THF-CH3 OH. The solvolysis of N-BOC-CCBI (25) was carried out in THF with 20-500 equiv of CH3 OH in the presence of 0.1-0.25 equiv of CF3 SO3 H. The following is the procedure for the solvolysis of 25 in THF with 20 equiv of CH3 OH in the presence of CF3 SO3 H (0.1 equiv). A stock solution was prepared by addition of CF3 SO3 H (5.6 μL) and anhydrous CH3 OH (502 μL) to anhydrous THF (99.49 mL). A sample of 25 (100 μg) in a UV cell was dissolved in THF (1950 μL) and the THF stock solution (50 μL) which contained CF3 SO3 H (0.1 equiv) and CH3 OH (20 equiv) was added. The solvolysis solution was sealed and UV spectrum was measured with an automated cycle program at regular intervals (10 min/cycle). The decrease in the long wavelength absorption at 313 nm was monitored and the solvolysis was complete after 80 h.

[4] = tested on: L1210; assay: In vitro cytotoxic activity, L1210; details: N-BOC derivatives
[5] = natural enantiomers, 37° C., 72 h

CC(C)(C)OC(=O)N1CC2CC23C1=CC(=O)c1ccc(C#N)cc13 (stereo not shown) [compound 25, N-(tert-Butyloxycarbonyl)-7-cyano-1,2,9,9a-tetrahydrocyclopropa[c]benz[e]indol-4-one]
DNA alkylation sequence selectivity [1]: 5'-AA>5'-TA
concentration providing detectable DNA alkylation ([1]; both enantiomers, 37° C., 24-72 h): 10^-2 to 10^-3 M
concentration at which DNA alkylation is detectable [1, 5]: 10^-3 M
concentration at which DNA alkylation is prominent [1, 5]: 10^-2 M
DNA alkylation less efficient than 34-39 ([1]; two enantiomers of 25): 10^4 ×
solvolysis regioselectivity, addition to the least substituted or C9 cyclopropane carbon [2]: nucleophilic addition to the least substituted carbon of the activated cyclopropane was observed exclusively
solvolysis half-life t1/2 [3]: 9.2 h
solvolysis rate k [3]: 2e-05 s⁻¹
time to complete solvolysis [3]: 80 h
relative cytotoxic potency of natural versus unnatural enantiomers [4]: 4 ×
